Measured values published in PMC7181660, “A novel specific PERK activator reduces toxicity and extends survival in Huntington's disease models” (Scientific Reports, 2020).

Key:
Assay in all cases: biochemical
Format in all cases: biochemical
panel of 391 kinases [1] = target: panel of 391 kinases (Homo sapiens, UniProt Q00536); details: CDK16/cyclin Y (PCTAIRE), MK-28 1 µM, ATP 1 µM
panel of 391 kinases [2] = target: panel of 391 kinases (Homo sapiens, UniProt Q9Y243); details: AKT3, MK-28 1 µM, ATP 1 µM
panel of 391 kinases [3] = target: panel of 391 kinases (Homo sapiens, UniProt Q14680); details: MELK, MK-28 1 µM, ATP 1 µM
panel of 391 kinases [4] = target: panel of 391 kinases (Homo sapiens, UniProt Q15569); details: TESK1, MK-28 1 µM, ATP 1 µM
panel of 391 kinases [5] = target: panel of 391 kinases (Homo sapiens, UniProt O00418); details: kinase EEF2K, compound at 1 µM, single dose in duplicates, 1 µM ATP
panel of 391 kinases [6] = target: panel of 391 kinases (Homo sapiens, UniProt P31751); details: AKT2, MK-28 1 µM, ATP 1 µM
panel of 391 kinases [7] = target: panel of 391 kinases (Homo sapiens, UniProt Q8IVT5); details: KSR1, MK-28 1 µM, ATP 1 µM
panel of 391 kinases [8] = target: panel of 391 kinases (Homo sapiens, UniProt O75116); details: ROCK2, MK-28 1 µM, ATP 1 µM
panel of 391 kinases [9] = target: panel of 391 kinases (Homo sapiens, UniProt Q04759); details: PKCtheta, MK-28 1 µM, ATP 1 µM
panel of 391 kinases [10] = target: panel of 391 kinases (Homo sapiens, UniProt Q9BZL6); details: PKD2/PRKD2, MK-28 1 µM, ATP 1 µM
panel of 391 kinases [11] = target: panel of 391 kinases (Homo sapiens, UniProt P78368); details: CK1g2, MK-28 1 µM, ATP 1 µM
panel of 391 kinases [12] = target: panel of 391 kinases (Homo sapiens, UniProt Q9P289); details: MST4, MK-28 1 µM, ATP 1 µM
panel of 391 kinases [13] = target: panel of 391 kinases (Homo sapiens, UniProt Q13177); details: PAK2, MK-28 1 µM, ATP 1 µM
panel of 391 kinases [14] = target: panel of 391 kinases (Homo sapiens, UniProt Q9NQU5); details: PAK6, MK-28 1 µM, ATP 1 µM
panel of 391 kinases [15] = target: panel of 391 kinases (Homo sapiens, UniProt Q76MJ5); details: ERN2/IRE2, MK-28 1 µM, ATP 1 µM
panel of 391 kinases [16] = target: panel of 391 kinases (Homo sapiens, UniProt Q9HCP0); details: CK1g1, MK-28 1 µM, ATP 1 µM
panel of 391 kinases [17] = target: panel of 391 kinases (Homo sapiens, UniProt Q9H093); details: SNARK/NUAK2, MK-28 1 µM, ATP 1 µM
panel of 391 kinases [18] = target: panel of 391 kinases (Homo sapiens, UniProt Q13188); details: MST2/STK3, MK-28 1 µM, ATP 1 µM
panel of 391 kinases [19] = target: panel of 391 kinases (Homo sapiens, UniProt P51817); details: PRKX, MK-28 1 µM, ATP 1 µM
panel of 391 kinases [20] = target: panel of 391 kinases (Homo sapiens, UniProt O95747); details: OSR1/OXSR1, MK-28 1 µM, ATP 1 µM
panel of 391 kinases [21] = target: panel of 391 kinases (Homo sapiens, UniProt Q96PY6); details: NEK1, MK-28 1 µM, ATP 1 µM
panel of 391 kinases [22] = target: panel of 391 kinases (Homo sapiens, UniProt P06241); details: FYN, MK-28 1 µM, ATP 1 µM
panel of 391 kinases [23] = target: panel of 391 kinases (Homo sapiens, UniProt Q9UL54); details: TAOK2/TAO1, MK-28 1 µM, ATP 1 µM
panel of 391 kinases [24] = target: panel of 391 kinases (Homo sapiens, UniProt Q15418); details: RSK1, MK-28 1 µM, ATP 1 µM
panel of 391 kinases [25] = target: panel of 391 kinases (Homo sapiens, UniProt P12931); details: c-Src, MK-28 1 µM, ATP 1 µM
panel of 391 kinases [26] = target: panel of 391 kinases (Homo sapiens, UniProt Q6IQ55); details: TTBK2, MK-28 1 µM, ATP 1 µM
[27] = read-out: % Enzyme Activity (relative to DMSO controls)

## CN(/N=C\c1ccc(O)c(O)c1)c1nc(-c2ccccc2)cc(-c2ccccc2)n1 [MK-28]
Panel of 391 kinases [1]
  % Enzyme Activity (relative to DMSO controls): 113.27%
Panel of 391 kinases [1]; [27]
  remaining activity at 1 µM: 119%
Panel of 391 kinases [2]
  % Enzyme Activity (relative to DMSO controls): 81.92%
Panel of 391 kinases [2]; [27]
  remaining activity at 1 µM: 82.2%
Panel of 391 kinases [3]
  % Enzyme Activity (relative to DMSO controls): 84.50%
Panel of 391 kinases [3]; [27]
  remaining activity at 1 µM: 85.5%
Panel of 391 kinases [4]
  % Enzyme Activity (relative to DMSO controls): 66.57%
Panel of 391 kinases [4]; [27]
  remaining activity at 1 µM: 66.7%
Panel of 391 kinases [5]
  % Enzyme Activity (relative to DMSO controls): 90.89%
Panel of 391 kinases [5]; [27]
  remaining activity at 1 µM: 91%
Panel of 391 kinases [6]
  % Enzyme Activity (relative to DMSO controls): 95.73%
Panel of 391 kinases [6]; [27]
  remaining activity at 1 µM: 98.1%
Panel of 391 kinases [7]
  % Enzyme Activity (relative to DMSO controls): 97.81%
Panel of 391 kinases [7]; [27]
  remaining activity at 1 µM: 99.7%
Panel of 391 kinases [8]
  % Enzyme Activity (relative to DMSO controls): 90.11%
Panel of 391 kinases [8]; [27]
  remaining activity at 1 µM: 90.5%
Panel of 391 kinases [9]
  % Enzyme Activity (relative to DMSO controls): 123.95%
Panel of 391 kinases [9]; [27]
  remaining activity at 1 µM: 128%
Panel of 391 kinases [10]
  % Enzyme Activity (relative to DMSO controls): 86.38%
Panel of 391 kinases [10]; [27]
  remaining activity at 1 µM: 87%
Panel of 391 kinases [11]
  % Enzyme Activity (relative to DMSO controls): 83.33%
Panel of 391 kinases [11]; [27]
  remaining activity at 1 µM: 87%
Panel of 391 kinases [12]
  % Enzyme Activity (relative to DMSO controls): 101.40%
Panel of 391 kinases [12]; [27]
  remaining activity at 1 µM: 102%
Panel of 391 kinases [13]
  % Enzyme Activity (relative to DMSO controls): 99.51%
Panel of 391 kinases [13]; [27]
  remaining activity at 1 µM: 99.7%
Panel of 391 kinases [14]
  % Enzyme Activity (relative to DMSO controls): 97.64%
Panel of 391 kinases [14]; [27]
  remaining activity at 1 µM: 98%
Panel of 391 kinases [15]
  % Enzyme Activity (relative to DMSO controls): 97.92%
Panel of 391 kinases [15]; [27]
  remaining activity at 1 µM: 99.7%
Panel of 391 kinases [16]
  % Enzyme Activity (relative to DMSO controls): 78.20%
Panel of 391 kinases [16]; [27]
  remaining activity at 1 µM: 80%
Panel of 391 kinases [17]
  % Enzyme Activity (relative to DMSO controls): 94.11%
Panel of 391 kinases [17]; [27]
  remaining activity at 1 µM: 95.6%
Panel of 391 kinases [18]
  % Enzyme Activity (relative to DMSO controls): 100.15%
Panel of 391 kinases [18]; [27]
  remaining activity at 1 µM: 101%
Panel of 391 kinases [19]
  % Enzyme Activity (relative to DMSO controls): 101.69%
Panel of 391 kinases [19]; [27]
  remaining activity at 1 µM: 104%
Panel of 391 kinases [20]
  % Enzyme Activity (relative to DMSO controls): 101.98%
Panel of 391 kinases [20]; [27]
  remaining activity at 1 µM: 105%
Panel of 391 kinases [21]
  % Enzyme Activity (relative to DMSO controls): 92.29%
Panel of 391 kinases [21]; [27]
  remaining activity at 1 µM: 94.7%
Panel of 391 kinases [22]
  % Enzyme Activity (relative to DMSO controls): 103.36%
Panel of 391 kinases [22]; [27]
  remaining activity at 1 µM: 103%
Panel of 391 kinases [23]
  % Enzyme Activity (relative to DMSO controls): 107.98%
Panel of 391 kinases [23]; [27]
  remaining activity at 1 µM: 111%
Panel of 391 kinases [24]
  % Enzyme Activity (relative to DMSO controls): 96.73%
Panel of 391 kinases [24]; [27]
  remaining activity at 1 µM: 96.8%
Panel of 391 kinases [25]
  % Enzyme Activity (relative to DMSO controls): 96.32%
Panel of 391 kinases [25]; [27]
  remaining activity at 1 µM: 97.7%
Panel of 391 kinases [26]
  % Enzyme Activity (relative to DMSO controls): 97.38%
Panel of 391 kinases [26]; [27]
  remaining activity at 1 µM: 98.9%
